The structures appear in SMILES notation.

The first test has as its target T1, human wild-type (WT)-pendrin (Homo sapiens, UniProt O43511).
T1 construct: expressed in transfected cells
T1 sequence (O43511 1-780): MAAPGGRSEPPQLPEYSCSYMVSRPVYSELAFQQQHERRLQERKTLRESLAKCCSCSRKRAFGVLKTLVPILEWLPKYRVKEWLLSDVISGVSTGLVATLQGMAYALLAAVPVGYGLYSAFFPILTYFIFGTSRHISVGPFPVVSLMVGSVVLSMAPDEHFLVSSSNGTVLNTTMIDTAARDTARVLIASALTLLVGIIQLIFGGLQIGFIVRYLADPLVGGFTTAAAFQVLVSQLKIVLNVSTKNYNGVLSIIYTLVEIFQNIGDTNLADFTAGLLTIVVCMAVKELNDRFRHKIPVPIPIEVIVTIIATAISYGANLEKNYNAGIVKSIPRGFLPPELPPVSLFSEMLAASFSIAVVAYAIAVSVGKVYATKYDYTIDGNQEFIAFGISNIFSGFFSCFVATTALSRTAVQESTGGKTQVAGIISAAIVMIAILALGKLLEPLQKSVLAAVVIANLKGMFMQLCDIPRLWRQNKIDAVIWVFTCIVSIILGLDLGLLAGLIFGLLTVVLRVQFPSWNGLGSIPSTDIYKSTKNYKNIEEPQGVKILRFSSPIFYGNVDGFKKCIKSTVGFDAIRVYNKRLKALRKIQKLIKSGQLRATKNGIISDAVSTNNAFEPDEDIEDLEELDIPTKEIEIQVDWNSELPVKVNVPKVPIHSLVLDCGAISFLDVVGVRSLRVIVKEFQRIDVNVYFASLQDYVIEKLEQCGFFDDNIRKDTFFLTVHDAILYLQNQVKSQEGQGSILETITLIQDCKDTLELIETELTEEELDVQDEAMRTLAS
The test can be described thus: Pendrin-mediated Cl^−/I^− exchange activity, YFP fluorescence in CHO-K1 cells. The settings on record: CHO-K1, 30 μM; read-out: Pendrin inhibitory activity at 30 μM (%). The test is classed as cell-based.
As for `O=C1OC(c2ccccc2I)=NC1=Cc1ccc(-n2cncn2)cc1` [F132, 4-(4-(1H-1,2,4-thiazol-1-yl)benzylidene)-2-(2-iodophenyl)oxazol-5(4H)-one], the inhibition at 30 µM is 3.9%.

Regarding `COc1cc(C=C2N=C(c3ccccc3OC)OC2=O)ccc1OCc1c(C)noc1C` [F133, 4-(4-((3,5-Dimethylisoxazol-4-yl)methoxy)-3-methoxybenzylidene)-2-(2-methoxyphenyl)oxazol-5 (4H)-one], the inhibition at 30 µM was 4.1%. Still for that read-out and setting: then `CC(=O)Nc1ccc(C2=NC(=Cc3ccc(-n4cncn4)cc3)C(=O)O2)cc1` [F134, N-(4-(4-(4-(1H-1,2,4-thiazol-1-yl)benzylidene)-5-oxo-4,5-dihydrooxazol-2-yl)phenyl)acetamide], with 3.4%; and `O=C1OC(c2ccccc2OC(F)F)=NC1=C/C=C/c1ccco1` [F135, 2-(2-(difluoromethoxy)phenyl)-4-((E)-3-(furan-2-yl)allylidene)oxazol-5 (4H)-one], with 2.8%; and `COc1ccccc1C1=NC(=Cc2cnn(C(C)(C)C)c2)C(=O)O1` [F136, 4-((1-(tert-butyl)-1H-pyrazol-4-yl)methylene)-2-(2-methoxyphenyl)oxazol-5(4H)-one], with 2.4%. Same read-out and setting: then `CCCc1ccc(C2=NC(=Cc3scnc3C)C(=O)O2)cc1` [F137, 4-((4-Methylthiazol-5-yl)methylene)-2-(4-propylphenyl)oxazol-5(4H)-one], with 3.1%; and `CCCCOc1ccc(C2=NC(=Cc3ccc[nH]3)C(=O)O2)cc1` [F138, 4-((1H-pyrrol-2-yl)methylene)-2-(4-butoxyphenyl)oxazol-5 (4H)-one], with 2.7%. The same measure, in the same setting: then `CCCCCCc1ccc(C2=NC(=Cc3cccs3)C(=O)O2)cc1` [F139, 2-(4-Hexylphenyl)-4-(thiophen-2-ylmethylene)oxazol-5 (4H)-one], with 2.5%; and `CC(C)(C)c1ccc(C2=NC(=Cc3cc4ccccc4[nH]3)C(=O)O2)cc1` [F140, 4-((1H-indol-2-yl)methylene)-2-(4-(tert-butyl)phenyl)oxazol-5(4H)-one], with 3.3%.

As to `CCCCCc1ccc(C2=NC(=Cc3ccco3)C(=O)O2)cc1` [F141, 4-(Furan-2-ylmethylene)-2-(4-pentylphenyl)oxazol-5(4H)-one], the inhibition at 30 µM is 1.9%. Consider `CCCCOc1ccc(C2=NC(=Cc3cccs3)C(=O)O2)cc1` [F142, 2-(4-Butoxyphenyl)-4-(thiophen-2-ylmethylene)oxazol-5 (4H)-one], for which the inhibition at 30 µM is 2.4%. In the case of `CCCc1ccc(C2=NC(=Cc3ccc[nH]3)C(=O)O2)cc1` [F143, 4-((1H-pyrrol-2-yl)methylene)-2-(4-propylphenyl)oxazol-5(4H)-one], the inhibition at 30 µM was 87.4%. For `CCCc1ccc(C2=NC(=Cc3cccs3)C(=O)O2)cc1` [F144, 2-(4-Propylphenyl)-4-(thiophen-2-ylmethylene)oxazol-5(4H)-one], the inhibition at 30 µM is 21.3%.

For the compound `CCCc1ccc(C2=NC(=Cc3ccsc3)C(=O)O2)cc1` [F145, 2-(4-Propylphenyl)-4-(thiophen-3-ylmethylene)oxazol-5 (4H)-one], the inhibition at 30 µM came out at 20.8%. Turning to `CCCc1ccc(C2=NC(=Cc3ccco3)C(=O)O2)cc1` [F146, 4-(Furan-2-ylmethylene)-2-(4-propylphenyl)oxazol-5(4H)-one], the inhibition at 30 µM stood at 26.1%.

As to `CCCCCCc1ccc(C2=NC(=Cc3ccc[nH]3)C(=O)O2)cc1` [F147, 4-((1H-pyrrol-2-yl)methylene)-2-(4-hexylphenyl)oxazol-5(4H)-one], the inhibition at 30 µM was determined as 3.4%.

`CC(C)(C#N)c1ccc(C2=NC(=Cc3ccc[nH]3)C(=O)O2)cc1` [F148]: the inhibition at 30 µM came to 100%. On the same count and under the same terms, then `Cc1cc(C)cc(C2=NC(=Cc3ccc[nH]3)C(=O)O2)c1` [F149, 4-((1H-pyrrol-2-yl)methylene)-2-(3,5-dimethylphenyl)oxazol-5(4H)-one], with 4.8%.

The test is the same for the next values; noted with them: compounds showing pendrin inhibitory activity of 50% or more at 30 μM; read-out: IC50.
On to `CCCc1ccc(C2=NC(=Cc3ccc[nH]3)C(=O)O2)cc1` [F143, 4-((1H-pyrrol-2-yl)methylene)-2-(4-propylphenyl)oxazol-5(4H)-one], for which the half-maximal inhibitory concentration (IC50) (in general, the concentration at which inhibition is half-maximal) was 5.3 ± 0.69 µM.

On to `CC(C)(C#N)c1ccc(C2=NC(=Cc3ccc[nH]3)C(=O)O2)cc1` [F148], for which the IC50 was determined as 0.2 ± 0.06 µM.
